# Tested on: GL261-luc cells
# Test: GL261-luc intracranial malignant glioma mouse model: survival and bioluminescence
# Format: in vivo, albino C57BL/6 mice
# Conditions: TMZ (5×50 mg/kg), animals maintained on SD
# Experimental: GL261-luc cells expressing luciferase were stereotactically implanted into the right frontal lobe of immune-competent albino C57BL/6 mice (NCI, Frederick, Md.). Following intracranial implantation, animals were fed standard rodent chow (SD) and were randomized to treatment groups on day 3 (SD vs KetoCal® with and without radiation or TMZ) based on bioluminescent signal (IVIS® Spectrum in vivo imaging system, Caliper Life Sciences, Hopkinton, Mass.). […] Mice were maintained on a 12 hour light/dark cycle and KetoCal® or SD was available ad libitum.
smiles,measurement,value
"Cn1nnc2c(C(N)=O)ncn2c1=O [TMZ, temozolomide]",median survival,28 days
